According to US20100002929A1, “Image-based methods for measuring global nuclear patterns as epigenetic markers of cell differentiation” (The Charles Stark Draper Laboratory, Inc., priority 2004, published 2010):

What was measured:
Oct4 promoter = details: combined TSA and 5Aza 2′ deoxycytidine treatment of TE; cited from earlier work
HDAC1 = HDAC1 immunostaining (confocal microscopy) in HeLa cells; details: FIG. 15
hESC = experiment: Chromatin mobility by time-lapse confocal microscopy of GFP-H2B transfected hESC; format: cell-based, human; details: hESC transfected with GFP-H2B; data not shown
Experimental: Chromatin movement was further analyzed in hESC transfected with the fluorescent histone GFP-H2B (FIG. 4). Single confocal slices at 0.4 μm spacing (FIG. 4A) show density variations, including low-density voids (arrow in FIG. 4A, 0.4 μm). The movement of cell-specific bright chromatin densities was analyzed by overlaying images at 0, 5 and 10 min, assigned to the blue, green and red channels respectively (FIGS. 4B-F) and by vector analysis where movement of bright spots was traced with a yellow line at 1 min intervals and red arrows were placed at the last position of the spot (FIG. 4G). Different kinds of nuclear movement were detected including internal mixing of chromatin, indicated by movement of bright chromatin domains without envelope deformation (pluripotent hESC, FIG. 4B), deformation of the envelope and chromatin (pluripotent hESC, FIG. 4C), and multidirectional streaming of chromatin (2 day differentiated hESC, FIG. 4D). Long-range coordination of chromatin movement was infrequent in hESC and prevalent, albeit at slower speeds, in differentiated cells. An increase in coherence length was most noticeable in 5-week differentiated hESC (FIG. 4E). In contrast, endothelial cells show small amplitude, sub-em tethered stochastic movement (FIG. 4F) as reported previously for somatic cells (Marshall, Straight et al. 1997). […]

For `Nc1ncn([C@H]2C[C@H](O)[C@@H](CO)O2)c(=O)n1` [5Aza 2′ deoxycytidine], the Oct4 expression (Oct4 promoter) is listed as “induces Oct4 expression” and the Oct4 promoter methylation (Oct4 promoter) is listed as “hypomethylates the Oct4 promoter”.
For `CC(/C=C/C(=O)NO)=C\[C@@H](C)C(=O)c1ccc(N(C)C)cc1` [TSA], the Oct4 expression (Oct4 promoter) is given as “induces Oct4 expression”, the Oct4 promoter methylation (Oct4 promoter) is given as “hypomethylates the Oct4 promoter” and the HDAC1 staining (HDAC1) is given as “complete absence of HDAC1 staining”.
With `C=C1[C@@H](C)[C@H]2[C@H](Cc3ccccc3)NC(=O)[C@]23[C@H](OC(C)=O)/C=C/[C@@](C)(O)C(=O)[C@@H](C)C/C=C/[C@H]3[C@@H]1O` [cytochalasin D] the “effect on chromatin mobility” value (hESC) was “slight acceleration of chromatin mobility”.
With `COC(=O)Nc1nc2ccc(C(=O)c3cccs3)cc2[nH]1` [nocodazole] the “effect on chromatin mobility” value (hESC) was “no effect on chromatin mobility”.
